How the values were obtained:
Type in all cases: biochemical
[1] = biological target: PDE1A (Homo sapiens, UniProt P54750); assay: PDE1 inhibition assay (SPA), PDE1A; details: for IC50: concentration required to reach 50% inhibition of the enzyme, 15 nM tritium labelled cAMP, read-out: PDE1A inhibition (nM or %): IC50; for inhibition at 10 µM: 1 h, % inhibition of the enzyme at a concentration of 10 micro molar of the compound, read-out: PDE1A inhibition (nM or %): % inhib
Description: (§1) PDE1 Inhibition Assay PDE1A, PDE1B and PDE1C assays were performed as follows: the assays were performed in 60 μL samples containing a fixed amount of the PDE1 enzym1 (sufficient to convert 20-25% of the cyclic nucleotide substrate), a buffer (50 mM HEPES pH 7.6; 10 mM MgCl2; 0.02% Tween20), 0.1 mg/ml BSA, 15 nM tritium labelled cAMP and varying amounts of inhibitors. Reactions were initiated by addition of the cyclic nucleotide substrate, and reactions were allowed to proceed for 1 h at room temperature before being terminated through mixing with 20 μL (0.2 mg) yttrium silicate SPA beads (PerkinElmer). The beads were allowed to settle for 1 h in the dark before the plates were counted in a Wallac 1450 Microbeta counter. The measured signals were converted to activity relative to an uninhibited control (100%) and IC50 values were calculated using XIFit (model 205, IDBS).

[2] = biological target: PDE1B (Homo sapiens, UniProt Q01064); assay: PDE1 inhibition assay (SPA), PDE1B; details: for IC50: concentration required to reach 50% inhibition of the enzyme, 15 nM tritium labelled cAMP, read-out: PDE1B inhibition (nM or %): IC50; for inhibition at 10 µM: 1 h, % inhibition of the enzyme at a concentration of 10 micro molar of the compound, read-out: PDE1B inhibition (nM or %): % inhib
Description: as §1

[3] = biological target: PDE1C (Homo sapiens, UniProt Q14123); assay: PDE1 inhibition assay (SPA), PDE1C; details: for IC50: concentration required to reach 50% inhibition of the enzyme, 15 nM tritium labelled cAMP, read-out: PDE1C inhibition (nM or %): IC50; for PDE1C inhibition (nM or %): % inhib: % inhibition of the enzyme at a concentration of 10 micro molar of the compound
Description: as §1

Chain of PDE1A (P54750 whole entry): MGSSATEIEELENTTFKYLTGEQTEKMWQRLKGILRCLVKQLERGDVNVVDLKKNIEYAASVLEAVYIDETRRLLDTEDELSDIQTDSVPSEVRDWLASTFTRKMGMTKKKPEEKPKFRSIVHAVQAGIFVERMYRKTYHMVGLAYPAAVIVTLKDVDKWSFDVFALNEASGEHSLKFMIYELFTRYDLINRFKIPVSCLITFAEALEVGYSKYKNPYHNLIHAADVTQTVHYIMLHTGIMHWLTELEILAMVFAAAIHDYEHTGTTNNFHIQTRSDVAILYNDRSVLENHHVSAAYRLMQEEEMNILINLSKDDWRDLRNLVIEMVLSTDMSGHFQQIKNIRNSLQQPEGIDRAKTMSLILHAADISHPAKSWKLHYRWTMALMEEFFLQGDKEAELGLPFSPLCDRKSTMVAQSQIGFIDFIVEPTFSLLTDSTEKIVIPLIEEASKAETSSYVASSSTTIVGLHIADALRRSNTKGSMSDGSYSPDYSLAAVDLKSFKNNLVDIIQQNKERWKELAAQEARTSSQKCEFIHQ
Chain of PDE1B (Q01064 whole entry): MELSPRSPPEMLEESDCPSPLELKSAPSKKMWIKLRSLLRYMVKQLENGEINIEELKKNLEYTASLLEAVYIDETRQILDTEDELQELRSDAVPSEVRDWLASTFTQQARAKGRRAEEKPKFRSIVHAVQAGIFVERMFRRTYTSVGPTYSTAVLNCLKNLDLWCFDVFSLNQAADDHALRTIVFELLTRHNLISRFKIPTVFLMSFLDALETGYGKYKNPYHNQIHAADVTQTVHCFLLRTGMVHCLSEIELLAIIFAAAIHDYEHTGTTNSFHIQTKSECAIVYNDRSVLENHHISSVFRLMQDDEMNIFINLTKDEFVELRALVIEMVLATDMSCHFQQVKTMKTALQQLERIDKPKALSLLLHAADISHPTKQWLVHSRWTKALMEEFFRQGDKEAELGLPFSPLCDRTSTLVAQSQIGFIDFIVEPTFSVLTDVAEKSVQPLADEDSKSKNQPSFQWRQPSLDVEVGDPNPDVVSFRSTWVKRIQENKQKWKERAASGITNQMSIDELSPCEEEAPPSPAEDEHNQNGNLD
Chain of PDE1C (Q14123 whole entry): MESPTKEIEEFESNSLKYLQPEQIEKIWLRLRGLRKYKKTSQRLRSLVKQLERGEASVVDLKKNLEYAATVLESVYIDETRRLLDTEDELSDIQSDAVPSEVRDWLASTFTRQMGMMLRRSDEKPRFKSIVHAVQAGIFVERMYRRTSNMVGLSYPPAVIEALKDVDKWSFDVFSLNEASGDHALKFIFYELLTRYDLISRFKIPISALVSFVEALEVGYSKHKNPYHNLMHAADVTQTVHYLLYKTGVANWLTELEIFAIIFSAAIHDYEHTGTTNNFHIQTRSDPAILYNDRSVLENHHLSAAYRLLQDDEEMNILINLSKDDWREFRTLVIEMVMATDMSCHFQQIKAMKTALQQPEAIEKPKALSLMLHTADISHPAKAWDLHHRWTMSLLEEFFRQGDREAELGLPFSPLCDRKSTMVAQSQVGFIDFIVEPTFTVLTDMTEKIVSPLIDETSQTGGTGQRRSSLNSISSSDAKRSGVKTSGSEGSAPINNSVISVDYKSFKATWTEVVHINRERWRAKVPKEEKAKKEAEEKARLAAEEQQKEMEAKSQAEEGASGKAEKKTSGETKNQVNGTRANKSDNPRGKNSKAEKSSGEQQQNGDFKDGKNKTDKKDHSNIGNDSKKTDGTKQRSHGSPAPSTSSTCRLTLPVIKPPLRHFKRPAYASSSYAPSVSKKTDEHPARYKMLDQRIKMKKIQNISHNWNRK

## Cc1ccc(Cc2cn3c(C4CCOCC4)nnc3c(=O)n2CC2CCCCCC2)cc1 [7-(cycloheptylmethyl)-6-(4-methylbenzyl)-3-(tetrahydro-2H-pyran-4-yl)-[1,2,4]triazolo[4,3-a]pyrazin-8(7H)-one]
[1]
  IC50: 0.86 nM
[2]
  IC50: 1 nM
[3]
  IC50: 0.37 nM

## CCCc1nnc2c(=O)n(CC3CCCCC3)ccn12 [7-(Cyclohexylmethyl)-3-propyl-[1,2,4]triazolo[4,3-a]pyrazin-8(7H)-one]
[1]
  IC50: 96 nM
[2]
  IC50: 81 nM
[3]
  IC50: 47 nM

## Cc1cccc(Cc2cn3c(C4CCOCC4)nnc3c(=O)n2Cc2cccc(F)c2)c1 [7-(3-fluorobenzyl)-6-(3-methylbenzyl)-3-(tetrahydro-2H-pyran-4-yl)-[1,2,4]triazolo[4,3-a]pyrazin-8(7H)-one]
[1]
  IC50: 6 nM
[2]
  IC50: 9 nM
[3]
  IC50: 2 nM

## O=c1c2nnc(C3CCOCC3)n2cc(Cc2ccccc2)n1CC1CCCCCC1 [6-benzyl-7-(cycloheptylmethyl)-3-(tetrahydro-2H-pyran-4-yl)-[1,2,4]triazolo[4,3-a]pyrazin-8(7H)-one]
[1]
  IC50: 1 nM
[2]
  IC50: 4 nM
[3]
  IC50: 2 nM

## O=c1c2nnc(CC(F)(F)F)n2ccn1Cc1cccc(F)c1 [7-(3-Fluorobenzyl)-3-(2,2,2-trifluoroethyl)-[1,2,4]triazolo[4,3-a]pyrazin-8(7H)-one]
[1]
  IC50: 2000 nM
[2]
  IC50: 1400 nM
[3]
  IC50: 380 nM

## O=c1c2nnc([C@H]3CC[C@H](O)CC3)n2ccn1Cc1cccc(F)c1 [7-(3-Fluorobenzyl)-3-((1r,4r)-4-hydroxycyclohexyl)-[1,2,4]triazolo[4,3-a]pyrazin-8(7H)-one]
[1]
  IC50: 1000 nM
[2]
  IC50: 630 nM
[3]
  IC50: 200 nM

## CCCc1nnc2c(=O)n(CC3CCC(F)CC3)ccn12 (mixture of isomers) [7-((4-fluorocyclohexyl)methyl)-3-propyl-[1,2,4]triazolo[4,3-a]pyrazin-8(7H)-one]
[1]
  IC50: 660 nM
[2]
  IC50: 560 nM
[3]
  IC50: 610 nM

## CCCc1nnc2c(=O)n(CC3CCOCC3)ccn12 [3-Propyl-7-((tetrahydro-2H-pyran-4-yl)methyl)-[1,2,4]triazolo[4,3-a]pyrazin-8(7H)-one]
[1]
  inhibition at 10 µM: 42%
[2]
  inhibition at 10 µM: 47%
[3]
  IC50: 1600 nM

## CCCc1nnc2c(=O)n(Cc3cccc(Cl)c3)ccn12 [7-(3-Chlorobenzyl)-3-propyl-[1,2,4]triazolo[4,3-a]pyrazin-8(7H)-one]
[1]
  IC50: 1400 nM
[2]
  IC50: 1300 nM
[3]
  IC50: 160 nM

## CCCc1nnc2c(=O)n(Cc3ccc(F)cc3)ccn12 [7-(4-Fluorobenzyl)-3-propyl-[1,2,4]triazolo[4,3-a]pyrazin-8(7H)-one]
[1]
  IC50: 970 nM
[2]
  IC50: 1200 nM
[3]
  IC50: 360 nM

## O=c1c2nnc(C3CCOC3)n2ccn1Cc1ccc(Cl)cc1 (stereo not drawn) [7-(4-Chlorobenzyl)-3-(tetrahydrofuran-3-yl)-[1,2,4]triazolo[4,3-a]pyrazin-8(7H)-one]
[1]
  IC50: 500 nM
[2]
  IC50: 840 nM
[3]
  IC50: 750 nM

## CCCc1nnc2c(=O)n(Cc3ccccc3Cl)ccn12 [7-(2-Chlorobenzyl)-3-propyl-[1,2,4]triazolo[4,3-a]pyrazin-8(7H)-one]
[1]
  IC50: 2000 nM
[2]
  IC50: 2500 nM
[3]
  IC50: 430 nM

## O=c1c2nnc(CC3CCOC3)n2ccn1Cc1cccc(F)c1 (stereo not drawn) [7-(3-Fluorobenzyl)-3-((tetrahydrofuran-3-yl)methyl)-[1,2,4]triazolo[4,3-a]pyrazin-8(7H)-one]
[1]
  IC50: 1200 nM
[2]
  IC50: 1900 nM
[3]
  IC50: 420 nM

## CCCc1nnc2c(=O)n(CC3CCCC(C)C3)ccn12 (mixture of isomers) [7-((3-methylcyclohexyl)methyl)-3-propyl-[1,2,4]triazolo[4,3-a]pyrazin-8(7H)-one]
[1]
  IC50: 320 nM
[2]
  IC50: 230 nM
[3]
  IC50: 83 nM

## O=c1c2nnc(C3CC3)n2ccn1Cc1cccc(F)c1 [3-Cyclopropyl-7-(3-fluorobenzyl)-[1,2,4]triazolo[4,3-a]pyrazin-8(7H)-one]
[1]
  IC50: 500 nM
[2]
  IC50: 780 nM
[3]
  IC50: 210 nM

## Cc1ccccc1Cc1cn2c(C3CCOCC3)nnc2c(=O)n1CC1CCCCCC1 [7-(cycloheptylmethyl)-6-(2-methylbenzyl)-3-(tetrahydro-2H-pyran-4-yl)-[1,2,4]triazolo[4,3-a]pyrazin-8(7H)-one]
[1]
  IC50: 25 nM
[2]
  IC50: 39 nM
[3]
  IC50: 14 nM

## CCCc1nnc2c(=O)n(CC3CCC(C)CC3)ccn12 (single isomer, unassigned) [7-(((1 r,4r)-4-methylcyclohexyl)methyl)-3-propyl-[1,2,4]triazolo[4,3-a]pyrazin-8(7H)-one]
[1]
  IC50: 79 nM
[2]
  IC50: 40 nM
[3]
  IC50: 120 nM

## CCCc1nnc2c(=O)n(CC3CCCC3)ccn12 [7-(Cyclopentylmethyl)-3-propyl-[1,2,4]triazolo[4,3-a]pyrazin-8(7H)-one]
[1]
  IC50: 840 nM
[2]
  IC50: 820 nM
[3]
  IC50: 95 nM

## O=c1c2nnc(C3CCOCC3)n2cc(Cc2ccc(F)cc2)n1CC1CCCCC1 [7-(cyclohexylmethyl)-6-(4-fluorobenzyl)-3-(tetrahydro-2H-pyran-4-yl)-[1,2,4]triazolo[4,3-a]pyrazin-8(7H)-one]
[1]
  IC50: 12 nM
[2]
  IC50: 17 nM
[3]
  IC50: 6 nM

## CCCc1nnc2c(=O)n(Cc3cccc(F)c3)c(C)cn12 [7-(3-fluorobenzyl)-6-methyl-3-propyl-[1,2,4]triazolo[4,3-a]pyrazin-8(7H)-one]
[1]
  IC50: 236 nM
[2]
  IC50: 190 nM
[3]
  IC50: 46 nM

## CCCc1nnc2c(=O)n(Cc3ccc(C)cc3)ccn12 [7-(4-Methylbenzyl)-3-propyl-[1,2,4]triazolo[4,3-a]pyrazin-8(7H)-one]
[1]
  IC50: 1000 nM
[2]
  IC50: 930 nM
[3]
  IC50: 780 nM

## CCCc1nnc2c(=O)n(CC3CCC(C)(C)CC3)ccn12 [7-((4,4-dimethylcyclohexyl)methyl)-3-propyl-[1,2,4]triazolo[4,3-a]pyrazin-8(7H)-one]
[1]
  IC50: 130 nM
[2]
  IC50: 110 nM
[3]
  IC50: 110 nM

## CCCc1nnc2c(=O)n(CC)ccn12 [7-Ethyl-3-propyl-[1,2,4]triazolo[4,3-a]pyrazin-8(7H)-one]
[1]
  inhibition at 10 µM: 49%
[2]
  inhibition at 10 µM: 71%
[3]
  PDE1C inhibition (nM or %): % inhib: 52%

## O=c1c2nnc(C3CCOCC3)n2cc(Cc2cccc(F)c2)n1CC1CCCC1 [7-(cyclopentylmethyl)-6-(3-fluorobenzyl)-3-(tetrahydro-2H-pyran-4-yl)-[1,2,4]triazolo[4,3-a]pyrazin-8(7H)-one]
[1]
  IC50: 369 nM
[2]
  IC50: 220 nM
[3]
  IC50: 27 nM

## CCCc1nnc2c(=O)n(Cc3cccc(F)c3)cc(Br)n12 [5-bromo-7-(3-fluorobenzyl)-3-propyl-[1,2,4]triazolo[4,3-a]pyrazin-8(7H)-one]
[1]
  IC50: 149 nM
[2]
  IC50: 180 nM
[3]
  IC50: 72 nM

## O=c1c2nnc(C3CCCC3)n2ccn1Cc1cccc(F)c1 [3-Cyclopentyl-7-(3-fluorobenzyl)-[1,2,4]triazolo[4,3-a]pyrazin-8(7H)-one]
[1]
  IC50: 420 nM
[2]
  IC50: 290 nM
[3]
  IC50: 800 nM

## CCCc1nnc2c(=O)n(Cc3ccccc3C(F)(F)F)ccn12 [3-Propyl-7-(2-(trifluoromethyl)benzyl)-[1,2,4]triazolo[4,3-a]pyrazin-8(7H)-one]
[1]
  inhibition at 10 µM: 44%
[2]
  inhibition at 10 µM: 46%
[3]
  PDE1C inhibition (nM or %): % inhib: 41%

## O=c1c2nnc(C3CCOCC3)n2cc(Br)n1Cc1cccc(F)c1 [6-bromo-7-(3-fluorobenzyl)-3-(tetrahydro-2H-pyran-4-yl)-[1,2,4]triazolo[4,3-a]pyrazin-8(7H)-one]
[1]
  IC50: 114 nM
[2]
  IC50: 150 nM
[3]
  IC50: 24 nM

## Cn1c(Cc2ccccc2)cn2c(C3CCOCC3)nnc2c1=O [6-benzyl-7-methyl-3-(tetrahydro-2H-pyran-4-yl)-[1,2,4]triazolo[4,3-a]pyrazin-8(7H)-one]
[1]
  IC50: 2000 nM
[2]
  IC50: 1600 nM
[3]
  IC50: 2800 nM

## CCCc1nnc2c(=O)n(CC(C)C)ccn12 [7-Isobutyl-3-propyl-[1,2,4]triazolo[4,3-a]pyrazin-8(7H)-one]
[1]
  IC50: 3300 nM
[2]
  IC50: 2700 nM
[3]
  IC50: 970 nM

## CCCc1nnc2c(=O)n(CC3CCC(F)(F)CC3)ccn12 [7-((4,4-difluorocyclohexyl)methyl)-3-propyl-[1,2,4]triazolo[4,3-a]pyrazin-8(7H)-one]
[1]
  IC50: 450 nM
[2]
  IC50: 420 nM
[3]
  IC50: 760 nM

## Cc1cccc(Cc2cn3c(C4CCOCC4)nnc3c(=O)n2CC2CCCCC2)c1 [7-(cyclohexylmethyl)-6-(3-methylbenzyl)-3-(tetrahydro-2H-pyran-4-yl)-[1,2,4]triazolo[4,3-a]pyrazin-8(7H)-one]
[1]
  IC50: 2 nM
[2]
  IC50: 3 nM
[3]
  IC50: 1 nM

## CCCc1nnc2c(=O)n(Cc3cccc(F)c3)c([C@@H]3CCOC3)cn12 (single isomer, unassigned)
[1]
  IC50: 1100 nM
[2]
  IC50: 1100 nM
[3]
  IC50: 270 nM

## CCCc1nnc2c(=O)n(Cc3ccccc3F)ccn12 [7-(2-Fluorobenzyl)-3-propyl-[1,2,4]triazolo[4,3-a]pyrazin-8(7H)-one]
[1]
  IC50: 860 nM
[2]
  IC50: 1000 nM
[3]
  IC50: 130 nM

— patent US10150771B2, “Triazolopyrazinones as PDE1 inhibitors” (H. Lundbeck A/S, priority 2014, dated 2018)
